Entries after “also recorded” stand apart in the source; their conditions may differ. Where two headings read alike, the source gives them in different places.
Assays:
[1] = test system: pancreas cancer cell line HS766T; test: In vitro cytotoxicity, MTS assay, pancreas cancer cells; type: cell-based, human; details: 7 days exposure, dose causing death to 50% of cells, read-out: Cell Survival ED 50 Pancreas
Experimental: (§1) In these experiments, cells were seeded at 400 cells per well 24 hours prior to addition of the test compound. Cells were grown at 37° C. in a humidified atmosphere of 95% air, 5% CO2 for 7 days with daily media changes. Cytotoxicity was assessed using the CellTiter 96 Aqueous Proliferation Assay (Promega, Madison, Wis.).

[2] = test system: human prostate (DU145) cancer cells; test: Mitochondrial membrane depolarization, JC-1 flow cytometry, prostate cancer cells; type: cell-based; details: 25 μM, five hours following drug exposure
Experimental: FIGS. 5D-5F illustrate the effects of compound of Example 8 on human prostate cancer cells (DU145). Mitochondrial membrane depolarization was assessed by flow cytometry as measured by the fluorescence of cation, JC-1. Cells were exposed to 25 μM of the compound and fluorescence measured at: 0 hours (FIG. 5D), 2.5 hours (FIG. 5E) and 4.5 hours (FIG. 5F).
(§2) Mitochondrial membrane depolarization is an early event in apoptosis. […] These early changes in mitochondrial function can be detected using a fluorescent cation, JC-1, that emits a red color when sequestered in the mitochondria of healthy cells, or a green color when localized to the cytoplasm.
(§3) Human breast (HS578-T) and prostate (DU145) cancer cells were exposed to 25 μM of the compound of Example 8 for varying lengths of times. Both cell lines lost the capacity to sequester JC-1 in the mitochondrial compartment as indicated by a time-dependent increase in green vs. red fluorescence (FIGS. 5A-5F). In an attempt to better quantitate the results of these experiments, the scans were divided into quadrants. At time 0, greater than 90% of the dye was localized in the mitochondria in both breast and prostate cancer cells. By five hours following drug exposure, the mitochondria from the prostate and breast cells contained only 33% and 22% of the dye, respectively.

[3] = test system: caspase-3 (CPP-32); test: Caspase-3 activation, western blot of cytosolic fractions; type: cell-based, human; details: breast cancer cells (HS578-T); 25 μM; 0-240 minutes
Experimental: FIG. 6 is an immunoblot illustrating the activation of caspase 3 in human breast cancer cells (HS578-T) exposed to 25 μM of the compound of Example 8. Cells were exposed to the compound for 0, 30, 60, 90, 150, and 240 minutes of treatment with peak activity occurring 90 minutes after drug addition.
When cells are induced to undergo apoptosis the cell death effector, caspase-3 (CPP-32), is cleaved and activated by proteolytic enzymes.

[4] = test system: human breast (HS578-T) cancer cells; test: Mitochondrial membrane depolarization, JC-1 flow cytometry, breast cancer cells; type: cell-based; details: 25 μM, five hours following drug exposure
Experimental: FIGS. 5A-5C illustrate the effects of the compound of Example 8 on human breast cancer cells (HS578-T). Mitochondrial membrane depolarization was assessed by flow cytometry as measured by the fluorescence of cation, JC-1. Cells were exposed to 25 μM of the compound and fluorescence measured at: 0 hours (FIG. 5A), 2 hours (FIG. 5B) and 5 hours (FIG. 5C).
as §2, §3

[5] = test system: human prostate (DU14) cancer cells; type: in vivo; details: daily i.p. for five days
Text: FIG. 2A is a bar graph which depicts the effect of the compound of Example 8 (1-[N,N′-di-p-tolyl)amidino]-4-(trans-1′-cinnamyl)piperizine) on human prostate cancer in BDF/1 mice using the sub-renal capsule assay.
(§4) Human cancer cells can be grown in the sub-renal capsule of immuno-competent mice where, for a limited period of time, they escape detection by the mouse's immune system. Thus, the sub-renal capsule assay provides a convenient system to study the effect of drugs on the growth of tumor cells in vivo (Bogden, A. E., et al., Exp. Cell Biol. 47:281 (1979)). Briefly, female BDF mice weighing 18-20g were anesthetized, the left kidney exteriorized and a small nick was made in the kidney capsule for implantation of tumor cells. Approximately 1×10^6 human prostate (DU14) or pancreatic cancer (HS766T) cells were prepared as a fibrinogen-jelled pellet (Stratton, J. A., et al., Gynecol. Oncol. 19:336 (1984); Stratton, J. A., et al., Gynecol. Oncol. 30:416 (1988)) and implanted beneath the renal capsule. […] One day after the final injection, the animals were killed and the tumor volume was measured. Tumor growth was determined by subtracting the initial size of the implant from the size of the implant size following treatment (Stratton, J. A., et al., Gynecol Oncol. 19:336 (1984); Stratton, J. A., et al., Gynecol. Oncol. 30:416 (1988)).

[6] = test system: human pancreatic cancer (HS766T) cells; type: in vivo; details: daily i.p. for five days
Text: FIG. 2B is a bar graph which depicts the effect of the compound of Example 8 on human pancreatic cancer in BDF/1 mice using the sub-renal capsule assay.
as §4

[7] = test system: hormone-independent prostate cancer cell line DU145; test: In vitro cytotoxicity, MTS (CellTiter 96 Aqueous Proliferation Assay), prostate cancer cells; type: cell-based, human
Experimental: (§5) FIG. 1 is a graph which compares the effects of the compound of Example 8 on normal human endothelial cells (AH-9) and human prostate cancer cells (DU145). Cells were exposed to the compound for seven days at the concentrations indicated. Cytotoxicity was assessed using the MTS assay.
as §1
(§6) In a separate experiment (FIG. 1), normal human endothelial cells (AH-9) and human prostate cancer cells (DU145) were exposed to increasing concentrations of the compound of Example 8 for seven days.

[8] = test system: normal human endothelial cells (AH-9); test: In vitro cytotoxicity, MTS assay, normal endothelial cells; type: cell-based; details: AH-9 normal endothelial cells; separate experiment (FIG. 1); seven days; read-out: EC50 cytotoxic activity
Experimental: as §5, §6

[9] = test system: breast cancer cell line HS578T; test: In vitro cytotoxicity, MTS assay, breast cancer cells; type: cell-based, human; details: 7 days exposure, dose causing death to 50% of cells, read-out: Cell Survival ED 50 Breast
Experimental: as §1

[10] = test system: DU145 prostate carcinoma xenografts; test: Anti-tumor activity in athymic mice bearing DU145 prostate carcinoma; type: in vivo, mouse; details: male nude mice; 12.5 mg/kg/d i.p. daily for two weeks; FIG. 3; 12.5 mg/kg/day
Experimental: FIG. 3 is a graph showing the effect of the compound of Example 8, at a dose of zero mg/kg (filled circles) and at a dose of 12.5 mg/kg (open circles), on human prostate cancer xenographs in BALB/C/NU mice.
DU145 tumor cells were injected subcutaneously into the flank of male nude mice (day 0). Palpable tumors develop within 14 days at which time the animals were treated for two weeks with daily intraperitoneal injections of either the compound of Example 8 or the control vehicle. Tumors were measured every two days and volume of tumor was calculated using the formula: Tumor volume=length×[…] At the end of the study, tumors in control mice had nearly tripled in size. […] Mechanism of Action

SMILES: Cc1ccc(N=C(Nc2ccc(C)cc2)N2CCN(C/C=C/c3ccccc3)CC2)cc1 [Example 8, 1-[(N,N′-Di-p-tolyl)amidino]-(trans-1′-cinnamyl)piperizine]
- EC50 [1]: 1800 nM
- JC-1 dye contained in mitochondria [2]: 33%
- processed (activated) caspase-3 (in words) [3]: time-dependent increase in processed caspase-3
- JC-1 dye contained in mitochondria [4]: 22%
- inhibition of tumor growth ([5]; prostate cancer cell line in mouse sub-renal capsule): greater than 95%
- effect on tumor growth (in words) ([5]; prostate implant, FIG. 2A): dose-dependent and highly significant inhibition of tumor growth
- inhibition of tumor growth ([6]; pancreatic cancer cell line in mouse sub-renal capsule): greater than 95%
- effect on tumor growth (in words) ([6]; pancreatic implant, FIG. 2B): dose-dependent and highly significant inhibition of tumor growth
- EC50 ([7]; 7 days exposure, MTS, dose causing death to 50% of cells, read-out: Cell Survival ED 50 Prostate): 1300 nM
- EC50 ([7]; separate experiment (FIG. 1), seven days, read-out: EC50 cytotoxic activity): 3400 nM
- EC50 [8]: 95000 nM
- EC50 [9]: 2300 nM
- tumor growth in xenograft (in words) [10]: active; also recorded: failed to grow
